Measurements from patent publication US8299048B2, “Hexahydrocyclopentyl[f]indazole sulfonamides and derivatives thereof as selective glucocorticoid receptor modulators” (Merck Sharp & Dohme Corp., priority 2008, dated 2012).

Biological target: T1, human GR (Homo sapiens, UniProt P04150)
T1 sequence (P04150 1-777): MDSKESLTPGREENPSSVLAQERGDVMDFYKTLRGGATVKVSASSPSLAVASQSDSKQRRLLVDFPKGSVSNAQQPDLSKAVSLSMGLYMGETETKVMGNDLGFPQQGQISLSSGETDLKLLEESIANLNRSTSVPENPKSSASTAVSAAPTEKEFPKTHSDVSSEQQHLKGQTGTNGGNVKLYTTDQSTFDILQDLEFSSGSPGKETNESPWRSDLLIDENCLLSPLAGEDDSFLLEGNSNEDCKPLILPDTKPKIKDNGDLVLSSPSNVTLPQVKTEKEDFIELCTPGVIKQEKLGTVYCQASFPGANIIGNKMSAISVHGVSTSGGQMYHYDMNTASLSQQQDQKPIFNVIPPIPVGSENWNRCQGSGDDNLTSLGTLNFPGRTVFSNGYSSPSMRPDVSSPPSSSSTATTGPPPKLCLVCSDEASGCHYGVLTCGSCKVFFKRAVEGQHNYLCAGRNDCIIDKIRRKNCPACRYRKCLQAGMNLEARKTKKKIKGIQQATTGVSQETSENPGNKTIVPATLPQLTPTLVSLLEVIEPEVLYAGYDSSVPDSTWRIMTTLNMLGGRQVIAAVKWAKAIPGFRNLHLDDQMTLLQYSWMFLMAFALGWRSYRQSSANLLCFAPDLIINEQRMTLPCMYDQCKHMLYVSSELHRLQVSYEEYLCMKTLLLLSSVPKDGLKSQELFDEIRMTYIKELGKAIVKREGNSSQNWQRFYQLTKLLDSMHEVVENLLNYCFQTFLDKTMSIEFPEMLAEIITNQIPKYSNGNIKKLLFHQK
Test: Trans-Activation Modulation of Glucocorticoid Receptor (GRAMMER), MMTV-LUC reporter, agonist mode
Type: cell-based
Parameters: endogenous in cells
Settings: for Emax: A549, A549 cells, maximum activity, read-out: Transactivation A549 Cells GRAMMER Emax; for EC50: A549 cells, inflection point, read-out: Transactivation A549 Cells GRAMMER IP
How it was run: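 Readout is luciferase from a modified MMTV LTR promoter after 24 h compound exposure alongside 10 nM dexamethasone (100% activity reference), DMSO ≤1%.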

`C[C@]12Cc3cnn(-c4ccc(F)cc4)c3C=C1CC[C@@H]2CN(CCCc1ccccc1)S(=O)(=O)c1ccccc1F` [Example 195, 2-fluoro-N-{[(4αR,5S)-1-(4-fluorophenyl)-4α-methyl-1,4,4α,5,6,7-hexahydrocyclopenta[f]indazol-5-yl]methyl}-N-(3-phenylpropyl)benzenesulfonamide] gave an Emax of 12.9% and an EC50 of 542 nM.

Work on `C[C@]12Cc3cnn(-c4ccc(F)cc4)c3C=C1CC[C@@H]2CN(CC1CCCO1)S(=O)(=O)c1ccc(C(N)=O)cc1` (stereo partly drawn) [Example 191, 4-{[{[(4αR,5S)-1-(4-fluorophenyl)-4α-methyl-1,4,4α,5,6,7-hexahydrocyclopenta[f]indazol-5-yl]methyl}(tetrahydrofuran-2-ylmethyl)amino]sulfonyl}benzamide] yielded an Emax of 27.1% and an EC50 of 338 nM.

`C[C@]12Cc3cnn(-c4ccc(F)cc4)c3C=C1CC[C@@H]2CN(CC#N)S(=O)(=O)c1ccccc1C(F)(F)F` [Example 54, N-(cyanomethyl)-N-{[(4αR,5S)-1-(4-fluorophenyl)-4α-methyl-1,4,4α,5,6,7-hexahydrocyclopenta[f]indazol-5-yl]methyl}-2-(trifluoromethyl)benzenesulfonamide] was tested, and the Emax was 8.2% and the EC50 was 1080 nM.

`C[C@]12Cc3cnn(-c4ccc(F)cc4)c3C=C1CC[C@@H]2CN(CC1CC1)S(=O)(=O)/C=C/c1ccccc1` [Example 13, (E)-N-(cyclopropylmethyl)-N-{[(4αR,5S)-1-(4-fluorophenyl)-4α-methyl-1,4,4α,5,6,7-hexahydrocyclopenta[f]indazol-5-yl]methyl}-2-phenylethylenesulfonamide] showed an Emax of 8.3% and an EC50 of 82.9 nM.

In the case of `C[C@]12Cc3cnn(-c4ccc(F)cc4)c3C=C1CC[C@@H]2CNS(=O)(=O)Cc1cccnc1` [Example 169, N-{[(4αR,5S)-1-(4-fluorophenyl)-4α-methyl-1,4,4α,5,6,7-hexahydrocyclopenta[f]indazol-5-yl]methyl}-1-pyridin-3-ylmethanesulfonamide], the Emax is reported as 12.4% and the EC50 is reported as 1660 nM.

For `C[C@]12Cc3cnn(-c4ccc(F)cc4)c3C=C1CC[C@@H]2CN(CC#N)S(=O)(=O)c1ccc(F)cc1F` [Example 51, N-(cyanomethyl)-2,4-difluoro-N-{[(4αR,5S)-1-(4-fluorophenyl)-4α-methyl-1,4,4α,5,6,7-hexahydrocyclopenta[f]indazol-5-yl]methyl}benzenesulfonamide], the Emax was 83.3% and the EC50 was 433 nM.

`C[C@]12Cc3cnn(-c4ccc(F)cc4)c3C=C1CC[C@@H]2CN(CC#N)S(=O)(=O)c1cc(Cl)c(Cl)s1` [Example 24, 4,5-dichloro-N-(cyanomethyl)-N-{[(4αR,5S)-1-(4-fluorophenyl)-4α-methyl-1,4,4α,5,6,7-hexahydrocyclopenta[f]indazol-5-yl]methyl}thiophene-2-sulfonamide] gave an Emax of 10.5% and an EC50 of 845 nM.

`C[C@]12Cc3cnn(-c4ccc(F)cc4)c3C=C1CC[C@@H]2CN(CC#N)S(=O)(=O)c1ccc(F)c(F)c1` [Example 25, N-(cyanomethyl)-3,4-difluoro-N-{[(4αR,5S)-1-(4-fluorophenyl)-4α-methyl-1,4,4α,5,6,7-hexahydrocyclopenta[f]indazol-5-yl]methyl}benzenesulfonamide] gave an Emax of 76.4% and an EC50 of 453 nM.

Molecule `C[C@]12Cc3cnn(-c4ccc(F)cc4)c3C=C1CC[C@@H]2CN(CC#N)S(=O)(=O)c1cccc2ccccc12` [Example 40, N-(cyanomethyl)-N-{[(4αR,5S)-1-(4-fluorophenyl)-4α-methyl-1,4,4α,5,6,7-hexahydrocyclopenta[f]indazol-5-yl]methyl}naphthalene-1-sulfonamide] has an Emax of 3.2% and an EC50 of 82.8 nM.

`C[C@]12Cc3cnn(-c4ccc(F)cc4)c3C=C1CC[C@@H]2CN(CC#N)S(=O)(=O)c1ccccc1-c1ccccc1` [Example 53, N-(cyanomethyl)-N-{[(4αR,5S)-1-(4-fluorophenyl)-4α-methyl-1,4,4α,5,6,7-hexahydrocyclopenta[f]indazol-5-yl]methyl}biphenyl-2-sulfonamide] showed an Emax of 18.1% and an EC50 of 866 nM.

With `C[C@]12Cc3cnn(-c4ccc(F)cc4)c3C=C1CC[C@@H]2CN(CC#N)S(=O)(=O)c1ccccc1C#N` [Example 55] the Emax was 47.7% and the EC50 was 549 nM.

`C[C@]12Cc3cnn(-c4ccc(F)cc4)c3C=C1CC[C@@H]2CN(CC1(O)CC1)S(=O)(=O)c1ccccc1F` [Example 200, 2-fluoro-N-{[(4αR,5S)-1-(4-fluorophenyl)-4α-methyl-1,4,4α,5,6,7-hexahydrocyclopenta[f]indazol-5-yl]methyl}-N-[(1-hydroxycyclopropyl)methyl]benzenesulfonamide] was tested, and the Emax was 57.5% and the EC50 was 47.9 nM.

For `C[C@]12Cc3cnn(-c4ccc(F)cc4)c3C=C1CC[C@@H]2CN(CCc1ccccn1)S(=O)(=O)Cc1ccccc1C(N)=O` [Example 196, 2-({[{[(4αR,5S)-1-(4-fluorophenyl)-4α-methyl-1,4,4α,5,6,7-hexahydrocyclopenta[f]indazol-5-yl]methyl}(2-pyridin-2-ylethyl)amino]sulfonyl}methyl)benzamide], the Emax was 36.6% and the EC50 was 552 nM.

With `Cn1cc(S(=O)(=O)N(CC2CCCO2)C[C@H]2CCC3=Cc4c(cnn4-c4ccc(F)cc4)C[C@@]32C)c(C(F)(F)F)n1` (stereo partly drawn) [Example 175, N-{[(4αR,5S)-1-(4-fluorophenyl)-4α-methyl-1,4,4α,5,6,7-hexahydrocyclopenta[f]indazol-5-yl]methyl}-1-methyl-N-(tetrahydrofuran-2-ylmethyl)-3-(trifluoromethyl)-1H-pyrazole-4-sulfonamide] the Emax was 22.7% and the EC50 was 381 nM.

In the case of `C[C@]12Cc3cnn(-c4ccc(F)cc4)c3C=C1CC[C@@H]2CN(CC#N)S(=O)(=O)c1ccc(F)cc1` [Example 46, N-(cyanomethyl)-4-fluoro-N-{[(4αR,5S)-1-(4-fluorophenyl)-4α-methyl-1,4,4α,5,6,7-hexahydrocyclopenta[f]indazol-5-yl]methyl}benzenesulfonamide], the Emax is reported as 83.3% and the EC50 is reported as 373 nM.

`CCN(C[C@H]1CCC2=Cc3c(cnn3-c3ccc(F)cc3)C[C@@]21C)S(=O)(=O)CC(F)(F)F` [Example 179, N-ethyl-2,2,2-trifluoro-N-{[(4αR,5S)-1-(4-fluorophenyl)-4α-methyl-1,4,4α,5,6,7-hexahydrocyclopenta[f]indazol-5-yl]methyl}ethanesulfonamide] gave an Emax of 65.4% and an EC50 of 277 nM.

`C[C@]12Cc3cnn(-c4ccc(F)cc4)c3C=C1CC[C@@H]2CN(CC#N)S(=O)(=O)c1cccc(C#N)c1` [Example 36, 3-cyano-N-(cyanomethyl)-N-{[(4αR,5S)-1-(4-fluorophenyl)-4α-methyl-1,4,4α,5,6,7-hexahydrocyclopenta[f]indazol-5-yl]methyl}benzenesulfonamide] showed an Emax of 22.7% and an EC50 of 745 nM.

`C[C@H](O)CN(C[C@H]1CCC2=Cc3c(cnn3-c3ccc(F)cc3)C[C@@]21C)S(=O)(=O)Cc1ccccc1C(N)=O` [Example 185, 2-[({{[(4αR,5S)-1-(4-fluorophenyl)-4α-methyl-1,4,4α,5,6,7-hexahydrocyclopenta[f]indazol-5-yl]methyl}[(2S)-2-hydroxypropyl]amino}sulfonyl)methyl]benzamide] was tested, and the Emax was 19.9% and the EC50 was 250 nM.

For `CC([C@H]1CCC2=Cc3c(cnn3-c3ccc(F)cc3)C[C@@]21C)N(CCc1ccccn1)S(=O)(=O)Cc1cccnc1` (stereo partly drawn) [Example 197, N-{1-[(4αR)-1-(4-fluorophenyl)-4α-methyl-1,4,4α,5,6,7-hexahydrocyclopenta[f]indazol-5-yl]ethyl}-1-pyridin-3-yl-N-(2-pyridin-2-ylethyl)methanesulfonamide], the Emax was 43.7% and the EC50 was 769 nM.

With `Cc1noc(C)c1S(=O)(=O)N(C)C[C@H]1CCC2=Cc3c(cnn3-c3ccc(F)cc3)C[C@@]21C` [Example 176, N-{[(4αR,5S)-1-(4-fluorophenyl)-4α-methyl-1,4,4α,5,6,7-hexahydrocyclopenta[f]indazol-5-yl]methyl}-N,3,5-trimethylisoxazole-4-sulfonamide] the Emax was 56.9% and the EC50 was 246 nM.

With `C[C@]12Cc3cnn(-c4ccc(F)cc4)c3C=C1CC[C@@H]2CN(CC#N)S(=O)(=O)c1cccc(Cl)c1Cl` [Example 26, 2,3-dichloro-N-(cyanomethyl)-N-{[(4αR,5S)-1-(4-fluorophenyl)-4α-methyl-1,4,4α,5,6,7-hexahydrocyclopenta[f]indazol-5-yl]methyl}benzenesulfonamide] the Emax was 5.8% and the EC50 was 939 nM.

`CCN(C[C@H]1CCC2=Cc3c(cnn3-c3ccc(F)cc3)C[C@@]21C)S(=O)(=O)c1c(C)noc1C` [Example 178, N-ethyl-N-{[(4αR,5S)-1-(4-fluorophenyl)-4α-methyl-1,4,4α,5,6,7-hexahydrocyclopenta[f]indazol-5-yl]methyl}-3,5-dimethylisoxazole-4-sulfonamide] gave an Emax of 55% and an EC50 of 110 nM.
